Here are results for six molecules from BindingDB's records for doi:10.1021/jm980707k (University of Alabama At Birmingham, 1999).

A short description of the assay: In vitro inhibitory activity against H1N9 Influenza A Neuraminidase.
The molecule `CC(=O)N[C@@H]1[C@@H]([C@H](O)[C@H](O)CO)O[C@](O)(C(=O)O)C[C@H]1O` [(2S,4R,5S,6S)-5-Acetylamino-2,4-dihydroxy-6-((1R,2R)-1,2,3-trihydroxy-propyl)-tetrahydro-pyran-2-carboxylic acid] yielded an IC50 of 10 µM.

Molecule `CCC(CC)Nc1cc(C(=O)O)ccc1N1C(=O)CCC1(CO)CO` [4-[2,2-bis(hydroxymethyl)-5-oxopyrrolidin-1-yl]-3-[(1-ethylpropyl)amino]benzoic acid] came in with a 50% inhibitory concentration (IC50) of 0.048 µM.

`CCC(CC)Nc1cc(C(=O)O)ccc1N1CCCC1=O` [3-(1-Ethyl-propylamino)-4-(2-oxo-pyrrolidin-1-yl)-benzoic acid] gave an IC50 of 222 µM.

Consider `O=C(O)c1ccc(N2C(=O)CCC2(CO)CO)cc1` [4-(2,2-Bis-hydroxymethyl-5-oxo-pyrrolidin-1-yl)-benzoic acid anion], for which the IC50 was determined as 760 µM.

In turn, `NCC1CCC(=O)N1c1ccc(C(=O)O)cc1N=C(N)N` (stereo unspecified) [4-(2-Aminomethyl-5-oxo-pyrrolidin-1-yl)-3-guanidino-benzoic acid] yielded a 50% inhibitory concentration (IC50) of 2600 µM.

The molecule `NC(N)=Nc1cc(C(=O)O)ccc1N1C(=O)CCC1(CO)CO` [4-(2,2-Bis-hydroxymethyl-5-oxo-pyrrolidin-1-yl)-3-guanidino-benzoic acid] came in with an IC50 of 5 µM.

Broadly, the IC50 is the point on the concentration scale where inhibition reaches its midpoint. A low value points to greater potency.
